The target of one test is T1, 5-HT transporter (Rattus norvegicus, UniProt P31652).
T1 construct: from tissue; host or cells: rat medulla and pons synaptosomes (P2 fraction)
Kind of test: 5-HT uptake inhibition in rat brain synaptosomes (medulla and pons). The format is biochemical. From the text:
(§1) I. Method for Determining Noradrenalin and 5-HT Uptake Inhibition:
(§2) Synaptosomes from rat brain regions are freshly isolated for in vitro studies, as described in the publication “The isolation of nerve endings from brain” by E. G. Gray and V. P. Whittaker, J. Anatomy 96, pages 79-88, 1962. The corresponding literature description is hereby introduced as a reference and is deemed to be part of the disclosure.
(§3) The tissue (hypothalamus for the determination of noradrenalin uptake inhibition and medulla and pons for the determination of 5-HT uptake inhibition) is homogenised in ice-cooled 0.32 M sucrose (100 mg of tissue/1 mL) in a glass homogeniser with Teflon pestle using five complete up and down strokes at 840 revolutions/minute.
(§4) The homogenate is centrifuged at 4° C. for 10 minutes at 1000 g. After subsequent centrifugation at 17000 g for 55 minutes, the synaptosomes (P2 fraction) are obtained, which are resuspended in 0.32 M […] (0.5 mL/100 mg of original weight).
(§5) The particular uptake is measured in a 96-well microtitre plate. The volume is 250 μl and the incubation proceeds at room temperature (approx. 20-25° C.) under an O2 atmosphere.
(§6) The incubation time is 7.5 minutes for [^3H]-NA and 5 minutes for [^3H]-5-HT.
(§7) The 96 samples are then filtered through a Unifilter GF/B microtitre plate (Packard) and washed with 200 mL of incubated buffer using a “Brabdel MPXRI-96T Cell-Harvester”. The Unifilter GF/B plate is dried for 1 hour at 55° C. The plate is then sealed with a Back seal (Packard) and 35 μl of scintillation fluid are added per well (Ultima Gold, Packard). After sealing with a top seal (Packard) and establishing an equilibrium (around 5 hours), radioactivity is determined in a “Trilux 1450 Microbeta” (Wallac).
(§8) The quantity of protein used in the above determination corresponds to the values known from the literature, as for example described in “Protein measurement with the folin phenol reagent”, Lowry et al., J. Biol. Chem., 193, 265-275, 1951.
(§9) A detailed description of the method may additionally be found in the literature, for example in M. Ch. Frink, H.-H. Hennies, W. Engelberger, M. Haurand and B. Wilffert (1996) Arzneim.-Forsch./Drug Res. 46 (III), 11, 1029-1036.
(§10) The corresponding literature descriptions are hereby introduced in each case as a reference and are deemed to be part of the present disclosure.
(§11) The following characteristics were determined for the NA or 5-HT transporter: […]

In another test the target is T2, NA transporter (Rattus norvegicus, UniProt Q63380).
T2 construct: from tissue; host or cells: rat hypothalamus synaptosomes (P2 fraction)
Kind of test: Noradrenalin uptake inhibition in rat brain synaptosomes (hypothalamus). The format is biochemical.
Excerpt: as §1, §2, §3, §4, §5, §6, §7, §8, §9, §10, §11

Here are results for 25 molecules from patent US20090176811A1, “Substituted 5,6,7,8-Tetrahydro-pyrido[4,3-d]pyrimidine-2-yl Compounds and 5,6,7,8-Tetrahydro-quinazoline-2-yl Compounds” (GRUENENTHAL GmbH, priority 2004, published 2009).

Each structure is given as a SMILES string.

T2 sequence (Q63380 1-617): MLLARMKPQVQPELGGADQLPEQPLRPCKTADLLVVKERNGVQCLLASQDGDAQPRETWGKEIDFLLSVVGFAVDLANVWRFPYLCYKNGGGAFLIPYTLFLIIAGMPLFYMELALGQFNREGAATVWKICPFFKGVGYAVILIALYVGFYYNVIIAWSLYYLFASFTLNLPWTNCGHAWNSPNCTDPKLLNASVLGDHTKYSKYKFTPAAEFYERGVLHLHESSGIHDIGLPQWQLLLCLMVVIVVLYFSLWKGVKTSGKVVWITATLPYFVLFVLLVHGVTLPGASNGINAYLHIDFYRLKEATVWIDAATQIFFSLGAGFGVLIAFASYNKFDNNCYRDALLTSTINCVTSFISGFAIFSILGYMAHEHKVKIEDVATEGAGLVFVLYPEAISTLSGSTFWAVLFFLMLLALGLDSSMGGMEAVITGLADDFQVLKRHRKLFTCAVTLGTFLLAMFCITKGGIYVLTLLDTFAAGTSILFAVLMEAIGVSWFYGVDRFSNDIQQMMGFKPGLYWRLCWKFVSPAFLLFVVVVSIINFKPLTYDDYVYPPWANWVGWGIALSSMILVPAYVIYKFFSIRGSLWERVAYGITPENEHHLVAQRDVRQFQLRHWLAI
T1 sequence (P31652 whole entry): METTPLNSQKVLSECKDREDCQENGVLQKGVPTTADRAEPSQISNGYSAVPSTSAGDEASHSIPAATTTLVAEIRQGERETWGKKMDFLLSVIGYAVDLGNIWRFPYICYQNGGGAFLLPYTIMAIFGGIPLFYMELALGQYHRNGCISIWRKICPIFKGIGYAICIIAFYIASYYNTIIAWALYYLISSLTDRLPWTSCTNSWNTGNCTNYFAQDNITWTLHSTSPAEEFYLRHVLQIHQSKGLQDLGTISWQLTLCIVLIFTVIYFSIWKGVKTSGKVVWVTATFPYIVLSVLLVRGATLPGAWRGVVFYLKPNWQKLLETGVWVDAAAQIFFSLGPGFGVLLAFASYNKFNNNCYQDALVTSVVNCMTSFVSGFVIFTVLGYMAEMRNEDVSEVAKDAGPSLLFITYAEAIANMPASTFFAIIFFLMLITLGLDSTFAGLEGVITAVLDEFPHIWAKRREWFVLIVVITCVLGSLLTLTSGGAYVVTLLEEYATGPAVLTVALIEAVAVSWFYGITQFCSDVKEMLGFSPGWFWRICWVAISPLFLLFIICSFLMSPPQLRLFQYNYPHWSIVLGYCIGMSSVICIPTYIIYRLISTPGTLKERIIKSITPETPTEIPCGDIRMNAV

In general, inhibition refers to the drop in the measured response relative to a control, in per cent. Take `O=C(Nc1ncc2c(n1)CCN(S(=O)(=O)c1ccc(OC(F)(F)F)cc1)C2)c1ccc(Cl)c(Cl)c1` [Example 134, 3,4-dichloro-N-[6-(4-trifluoromethoxy-benzenesulfonyl)-5,6,7,8-tetrahydro-pyrido[4,3-d]pyrimidin-2-yl]-benzamide]: the inhibition at 1 µM at 5-HT transporter was determined as 58%. At NA transporter, this molecule came in with an inhibition at 10 µM of 59%.
For `O=C(Nc1ncc2c(n1)CCN(S(=O)(=O)c1ccc(Cl)cc1)C2)c1ccc(Cl)c(Cl)c1` [Example 71, 3,4-dichloro-N-[6-(4-chloro-benzenesulfonyl)-5,6,7,8-tetrahydro-pyrido[4,3-d]pyrimidin-2-yl]-benzamide] the same measures were 47% and 74%.
For `CCc1ccc(C(=O)Nc2ncc3c(n2)CCN(C(=O)c2ccc(Cl)c(Cl)c2)C3)cc1` [Example 101, N-[6-(3,4-dichloro-benzoyl)-5,6,7,8-tetrahydro-pyrido[4,3-d]pyrimidin-2-yl]-4-ethyl-benzamide] the same measures were 65% and 84%.
Regarding `O=C(Nc1ncc2c(n1)CCN(C(=O)c1ccc(OC(F)(F)F)cc1)C2)c1cc(Cl)cc(Cl)c1` [Example 192, 3,5-dichloro-N-[6-(4-trifluoromethoxy-benzoyl)-5,6,7,8-tetrahydro-pyrido[4,3-d]pyrimidin-2-yl]-benzamide], testing at 1 µM at 5-HT transporter gave an inhibition of 47%. Also, the inhibition at 10 µM on NA transporter was determined as 73%.
As for `O=C(Nc1ncc2c(n1)CCN(C(=O)c1ccc3ccccc3c1)C2)c1ccc(Cl)cc1` [Example 69], the “5-HT uptake, rat, 1 μM, % inhibition” value on 5-HT transporter came out at 70%. Further, the “NA uptake, rat, 10 μM, % inhibition” value on NA transporter is reported as 73%.
In the case of `O=C(Nc1ncc2c(n1)CCN(S(=O)(=O)c1cccs1)C2)c1ccc(F)c(F)c1` [Example 72, 3,4-difluoro-N-[6-(thiophene-2-sulfonyl)-5,6,7,8-tetrahydro-pyrido[4,3-d]pyrimidin-2-yl]-benzamide], at NA transporter, the inhibition at 10 µM was determined as 41%.
As to `CC(C)(C)c1ccc(C(=O)Nc2ncc3c(n2)CCN(S(=O)(=O)c2ccc4c(c2)OCCO4)C3)cc1` [Example 186, 4-tert-butyl-N-[6-(2,3-dihydro-benzo[1,4]dioxin-6-sulfonyl)-5,6,7,8-tetrahydro-pyrido[4,3-d]pyrimidin-2-yl]-benzamide], the inhibition at 1 µM against 5-HT transporter worked out at 46%. This molecule showed an inhibition at 10 µM against NA transporter of 82%.
At 5-HT transporter, `COc1ccc(C(=O)N2CCc3nc(NC(=O)c4cccc(Cl)c4)ncc3C2)cc1OC` [Example 119, 3-chloro-N-[6-(3,4-dimethoxy-benzoyl)-5,6,7,8-tetrahydro-pyrido[4,3-d]pyrimidin-2-yl]-benzamide] had an inhibition at 1 µM of 34%. This molecule registered an inhibition at 10 µM against NA transporter of 72%.
Take `COc1ccccc1C(=O)Nc1ncc2c(n1)CCN(C(=O)COCc1ccccc1)C2` [Example 195, N-[6-(2-benzyloxy-acetyl)-5,6,7,8-tetrahydro-pyrido[4,3-d]pyrimidin-2-yl]-2-methoxy-benzamide]: on NA transporter, the inhibition at 10 µM is 31%.
For the molecule `O=C(Nc1ncc2c(n1)CCN(C(=O)c1sc3ccccc3c1Cl)C2)c1cccs1` [Example 110, thiophene-2-carboxylic acid [6-(3-chloro-benzo[b]thiophene-2-carbonyl)-5,6,7,8-tetrahydro-pyrido[4,3-d]pyrimidin-2-yl]-amide], at 5-HT transporter, testing at 1 µM gave an inhibition of 96%. Further, on NA transporter, the inhibition at 10 µM came to 75%.
`O=C(Nc1ncc2c(n1)CCN(S(=O)(=O)c1ccc(Cl)s1)C2)c1cccc2ccccc12` [Example 117, naphthalene-1-carboxylic acid [6-(5-chloro-thiophene-2-sulfonyl)-5,6,7,8-tetrahydro-pyrido[4,3-d]pyrimidin-2-yl]-amide] gave an inhibition at 1 µM on 5-HT transporter of 32%. On NA transporter, this molecule yielded an inhibition at 10 µM of 31%.
For `CCc1ccc(C(=O)Nc2ncc3c(n2)CCN(S(=O)(=O)c2ccccc2Cl)C3)cc1` [Example 114, N-[6-(2-chloro-benzenesulfonyl)-5,6,7,8-tetrahydro-pyrido[4,3-d]pyrimidin-2-yl]-4-ethyl-benzamide] the same measures were 50% and 73%.
For `O=C(Nc1ncc2c(n1)CCN(C(=O)c1sc3ccccc3c1Cl)C2)c1ccccc1` [Example 120, N-[6-(3-chloro-benzo[b]thiophene-2-carbonyl)-5,6,7,8-tetrahydro-pyrido[4,3-d]pyrimidin-2-yl]-benzamide] the same measures were 92% and 78%.
`O=C(Nc1ncc2c(n1)CCN(C(=O)c1c(F)cccc1Cl)C2)c1cccc(Cl)c1` [Example 127, 3-chloro-N-[6-(2-chloro-6-fluoro-benzoyl)-5,6,7,8-tetrahydro-pyrido[4,3-d]pyrimidin-2-yl]-benzamide] yielded an inhibition at 1 µM on 5-HT transporter of 35%. In addition, at NA transporter, the inhibition at 10 µM was determined as 71%.
On 5-HT transporter, `CCc1ccc(C(=O)Nc2ncc3c(n2)CCN(S(=O)(=O)c2ccc4c(c2)CN(C(=O)C(F)(F)F)CC4)C3)cc1` [Example 157, 4-ethyl-N-{6-[2-(2,2,2-trifluoro-acetyl)-1,2,3,4-tetrahydro-isoquinoline-7-sulfonyl]-5,6,7,8-tetrahydro-pyrido[4,3-d]pyrimidin-2-yl}-benzamide] had an inhibition at 1 µM of 43%. The inhibition at 10 µM at NA transporter was 61%.
On 5-HT transporter, `Cc1ccccc1C(=O)N1CCc2nc(NC(=O)c3cccc(Cl)c3)ncc2C1` [Example 109, 3-chloro-N-[6-(2-methyl-benzoyl)-5,6,7,8-tetrahydro-pyrido[4,3-d]pyrimidin-2-yl]-benzamide] displayed an inhibition at 1 µM of 30%. This molecule gave an inhibition at 10 µM at NA transporter of 92%.
The corresponding values for `O=C(Nc1ncc2c(n1)CCN(C(=O)c1ccc(-c3cccs3)cc1)C2)c1cc(Cl)cc(Cl)c1` [Example 144, 3,5-dichloro-N-[6-(4-thiophen-2-yl-benzoyl)-5,6,7,8-tetrahydro-pyrido[4,3-d]pyrimidin-2-yl]-benzamide] are 42% and 67%.
For `O=C(Nc1ncc2c(n1)CCN(C(=O)C1CCc3ccccc3C1)C2)c1cccc(F)c1` (centres unmarked) [Example 141, 3-fluoro-N-[6-(1,2,3,4-tetrahydro-naphthalene-2-carbonyl)-5,6,7,8-tetrahydro-pyrido[4,3-d]pyrimidin-2-yl]-benzamide] the same measures were 54% and 55%.
In turn, `CCOC(=O)CC(=O)N1CCc2nc(NC(=O)c3cccc(Cl)c3)ncc2C1` [Example 124, 3-[2-(3-chloro-benzoylamino)-7,8-dihydro-5H-pyrido[4,3-d]pyrimidin-6-yl]-3-oxo-propionic acid ethyl ester] gave an inhibition at 10 µM against NA transporter of 65%.
At NA transporter, `COc1cccc(C(=O)Nc2ncc3c(n2)CCN(C(=O)c2cccc(OC(F)(F)F)c2)C3)c1` [Example 199, 3-methoxy-N-[6-(3-trifluoromethoxy-benzoyl)-5,6,7,8-tetrahydro-pyrido[4,3-d]pyrimidin-2-yl]-benzamide] registered an inhibition at 10 µM of 52%.
At NA transporter, `COc1cccc(C(=O)Nc2ncc3c(n2)CCN(C(=O)c2cccc(F)c2F)C3)c1` [Example 80, N-[6-(2,3-difluoro-benzoyl)-5,6,7,8-tetrahydro-pyrido[4,3-d]pyrimidin-2-yl]-3-methoxy-benzamide] came in with an inhibition at 10 µM of 54%.
On the same count and under the same terms, as for `CC(C(=O)N1CCc2nc(NC(=O)c3ccccc3)ncc2C1)c1ccc(Cl)cc1` (centres unmarked) [Example 176, N-{6-[2-(4-chloro-phenyl)-propionyl]-5,6,7,8-tetrahydro-pyrido[4,3-d]pyrimidin-2-yl}-benzamide], the figure is 38%; as for `O=C(Nc1ncc2c(n1)CCN(C(=O)c1cccc(F)c1)C2)c1cccc2ccccc12` [Example 183, naphthalene-1-carboxylic acid [6-(3-fluoro-benzoyl)-5,6,7,8-tetrahydro-pyrido[4,3-d]pyrimidin-2-yl]-amide], 63%; as for `COc1ccccc1C(=O)Nc1ncc2c(n1)CCN(S(=O)(=O)c1ccc(Cl)s1)C2` [Example 86, N-[6-(5-chloro-thiophene-2-sulfonyl)-5,6,7,8-tetrahydro-pyrido[4,3-d]pyrimidin-2-yl]-2-methoxy-benzamide], 32%.
On the same count and under the same terms, to `COc1ccc(S(=O)(=O)N2CCc3nc(NC(=O)c4ccc(F)cc4)ncc3C2)cc1` [Example 185, 4-fluoro-N-[6-(4-methoxy-benzenesulfonyl)-5,6,7,8-tetrahydro-pyrido[4,3-d]pyrimidin-2-yl]-benzamide] belongs 36%.
